{"source": "patent US5455226A", "about": "“EGF-containing pharmaceutical composition for the treatment of bronchopulmonary pathologies” (Synthelabo, priority 1991, dated 1995)", "key": {"[1]": {"tested_on": "surface epithelial cells dissociated from nasal polyp", "assay": "In vitro model of lesion of the respiratory epithelium: repair index", "type": "cell-based, human", "conditions": "for repair index: 10 ng/ml", "experimental": "Surface epithelial cells dissociated from nasal polyp are cultured on a collagen I matrix in RPMI culture medium supplemented with hydrocortisone,retinoic acid, insulin and EGF (epidermal growth factor). After about 3 days of culture, when the cells have become confluent, the supplemented culture medium is replaced with unsupplemented RPMI medium. After incubating for 12 hours in the presence of unsupplemented medium, the culture is placed on the stage of an inverted microscope equipped with a micromanipulator. A microcapillary, guided by the micromanipulator, makes it possible to detach cells, thus creating a wound with a surface area of about 100,000 μm^2. The unsupplemented culture medium is then replaced with culture medium containing only EGF at different concentrations. Video recordings of the injured culture are then made every hour. Using these video recordings, an image analyser makes it possible to monitor the variation of the surface area of the wound as a function of time. A regression line between the surface area of the wound (expressed in μm^2) and the time (expressed in hours) makes it possible to calculate the slope of the regression line obtained, a slope which corresponds to the decrease in the surface area of the wound per unit of time. The latter parameter corresponds to the repair index (the higher the index, the faster the repair).\nEight nasal polyps were used to culture respiratory epithelial cells (5 culture dishes per polyp). In each of these dishes, the injured cultures are incubated either in the presence of unsupplemented culture medium, or in the presence of culture medium supplemented with EGF at various concentrations (5, 10, 20 or 50 ng/ml). From the variation of the surface area as a function of time (the repair index corresponds to the slope of the regression line between the surface area of the wound and time), we calculated the repair index. This index is then expressed relative to the repair index obtained with the EGF-free culture medium used as control. The results obtained show a systematic increase in the repair index for wounds in the presence of EGF. At a concentration of 5 and 10 ng/ml, EGF stimulates the repair by 38% and 36% respectively. At the concentration of 20 ng/ml, the stimulation is 49%.\nThis study was carried out under the same experimental conditions as above. The repair index for the wounds was quantified in the presence of unsupplemented culture medium and in the presence of culture medium supplemented either with EGF of mouse submaxillary gland (m-EGF: 10 ng/ml), or with recombinant human EGF (h-EGF: 10 ng/ml)."}, "[2]": {"tested_on": "human respiratory epithelial cells in culture", "assay": "In vitro model of respiratory epithelium wound repair (30 to 50 cells detached by micromanipulator)", "type": "cell-based", "conditions": "EGF 10 ng/ml", "experimental": "(§1) The study of the repair of wounds of the respiratory epithelium was performed on an in vitro model. Thirty to 50 cells are detached from the culture by means of a micromanipulator so as to expose the collagen matrix on which the epithelial cells proliferate. The repair of this injured region is monitored as a function of time on cultures in the presence of EGF (10 ng/ml) or in the absence of EGF. For the technique of culture of dissociated cells in a collagen lattice, the effect of EGF on the retraction of the collagen lattice was studied after 8 days of culture. This retraction is quantified by measuring the area of the collagen lattice."}, "[3]": {"tested_on": "ciliated cells of human respiratory epithelium", "assay": "Functional activity of ciliated cells in explant culture", "type": "cell-based", "conditions": "20 ng/ml of EGF, after 3 days of culture", "experimental": "(§2) Cultures of respiratory epithelial cells are obtained from nasal polyps by the technique of explants (growth of cells around the explant) and by the technique of dissociated cells cultured in a three-dimensional collagen matrix (collagen lattice).\n(§3) The explants are cultured in the presence of varying concentrations (0, 5, 10 and 20 ng/ml) of EGF (EGF from mouse submaxillary glands, ref. E 4127, Sigma). The growth area around the explants is quantified after 3 and 4 days of culture. The percentage of growth area covered with ciliated cells as well as the ciliary beat frequency were measured after 3 days of culture. For the collagen lattice culture technique, the number of cells in culture was quantified up to 11 days after of culture, and this in the absence and in the presence of EGF (10 ng/ml)."}, "[4]": {"tested_on": "human respiratory epithelial cells (from nasal polyps)", "assay": "Explant culture of respiratory epithelial cells: growth area around explants", "type": "cell-based", "conditions": "increasing EGF concentration up to 20 ng/ml; p<0.05", "experimental": "as §2, §3"}, "[5]": {"tested_on": "human respiratory epithelial cells (from nasal polyps)", "assay": "Dissociated respiratory epithelial cells cultured in a collagen lattice: cell number and morphology", "type": "cell-based", "experimental": "as §2, §3"}, "[6]": {"tested_on": "superficial respiratory epithelial cells", "assay": "Retraction of the collagen lattice by respiratory epithelial cells", "type": "cell-based, human", "conditions": "after 8 days of culture in the presence of EGF", "experimental": "as §1"}}, "note": "Where “and” joins values, the source holds several entries; their conditions need not be identical. Identical values can stand only once.", "data": [{"substance": "EGF: Epidermal Growth Factor polypeptide from mouse submaxillary glands, ref. E 4127, Sigma", "values": [{"measurement": "repair index", "setting": "[1]", "result": 11215, "unit": "μm^2 /h"}, {"measurement": "stimulation of the repair (repair index relative to EGF-free control)", "setting": "[1]; EGF 5 ng/ml", "result": 38, "unit": "%"}, {"measurement": "stimulation of the repair (repair index relative to EGF-free control)", "setting": "[1]; EGF 10 ng/ml", "result": 36, "unit": "%"}, {"measurement": "stimulation of the repair (repair index relative to EGF-free control)", "setting": "[1]; EGF 20 ng/ml", "result": "49% and ~50%"}, {"measurement": "repair index compared with the index obtained with 20 ng/ml of EGF", "setting": "[1]; EGF 50 ng/ml, p<0.05", "result": "significantly (p<0.05) reduced"}, {"measurement": "slope of the regression line (wound repair)", "setting": "[2]", "result": -71.8}, {"measurement": "ciliary beat frequency", "setting": "[3]", "result": 14.5, "unit": "Hz"}, {"measurement": "percentage of the growth surface covered with ciliated cells", "setting": "[3]", "result": 43, "unit": "%"}, {"measurement": "growth area around the explants", "setting": "[4]", "result": "substantial increase in the growth area"}, {"measurement": "number of cells", "setting": "[5]; after 8 days of culture, in the presence of EGF vs without", "result": "twice as high"}, {"measurement": "rate of cell proliferation", "setting": "[5]; collagen lattice, EGF 10 ng/ml, compared with cultures without EGF", "result": "higher"}, {"measurement": "formation of three-dimensional structures", "setting": "[5]; collagen lattice, EGF in the culture medium", "result": "promotes the formation of tubular type three-dimensional structures"}, {"measurement": "collagen lattice area", "setting": "[6]", "result": 660, "unit": "mm^2"}]}, {"substance": "h-EGF: recombinant human EGF (Sigma, Ref. E-3264)", "values": [{"measurement": "repair index", "setting": "[1]", "result": 11492, "unit": "μm^2 /h"}]}]}
